Measurements reported in patent US20250255834A1, “ANXIOLYTIC COMPOSITION, FORMULATION AND METHOD OF USE” (priority 2012, published 2025).

System: anxiety
Assay: Intranasal ketamine spray given to individual adult subjects for anxiety before a procedure or flight (case reports)

For CNC1(c2ccccc2Cl)CCCCC1=O (stereo not drawn) [ketamine], the “duration of relief from anxiety and calming effect” value (Example I: healthy person, intranasal, about 0.2-0.3 mg/kg) was 15 to 30 min, the “development of anxiety during the dental procedure” value (Example II: person with severe dental phobia, dental extraction under local anesthetic, intranasal unit dose before travel, additional dosage in the waiting room) was “without the development of anxiety” and the “duration of relief from anxiety and calming effect” value (Example II: person with severe dental phobia, intranasal unit dose as in Example I) was 15 to 30 min.
